Assay results: patent US20160106102A1, “KNOWN AND NEW HETEROCYCLIC COMPOUNDS AS PEST CONTROL AGENTS” (BAYER CROPSCIENCE AKTIENGESELLSCHAFT, priority 2013, published 2016)
Read-outs that look alike come from different tables or passages of the source. Each block holds one compound with its values, some of them ahead of it.

Experiment: log P determination by LC-MS in the acidic range
Type: physicochemical
Source text: The LC-MS determination in the acidic range is effected at pH 2.7 using 0.1% aqueous formic acid and acetonitrile (contains 0.1% formic acid) as eluents, linear gradient from 10% acetonitrile to 95% acetonitrile. Alternatively, the determination is effected in the acidic range at pH 2.3 using 0.1% aqueous phosphoric acid and acetonitrile as eluents; linear gradient from 10% acetonitrile to 95% acetonitrile.

[1] = amines of the formula (II-1), acidic range pH 2.7 (0.1% formic acid/acetonitrile) or pH 2.3 (0.1% phosphoric acid/acetonitrile)
[2] = pH 2.7, values given in the synthesis examples and NMR lists, read-out: HPLC-MS: log P
[3] = Table 4, HPLC on reversed-phase column (C 18), 55° C., acidic range (pH 2.7 or pH 2.3)
[4] = Table 3, HPLC on reversed-phase column (C 18), 55° C., acidic range (pH 2.7 or pH 2.3)
[5] = Table 2, compounds of the formula (I-2), acidic range pH 2.7 or pH 2.3
[6] = pH 2.7, LC-MS in the acidic range, read-out: log P (acid)

SMILES: Nc1ccn(Cc2ccc(Cl)nc2)n1 [II-1-3]
log P (acid) [1]: 0.56

SMILES: Cc1nn(-c2ccccn2)nc1N [5-Methyl-2-(pyridin-2-yl)-2H-1,2,3-triazol-4-amine]
chromatographic logP [2]: 0.74

SMILES: Nc1cc(C2CC2)n(Cc2ccc(Cl)nc2)n1 [II-1-1]
log P (acid) [1]: 1.21

SMILES: Cc1cc(N)nn1Cn1c(=O)n(C)c(=O)n1C [II-1-48]
log P (acid) [1]: 0.03

SMILES: CCOC(=O)Cn1nnc(NC(=O)c2cccnc2)n1 [Compound I-4-5]
log P (acid) [3]: 0.71

SMILES: Cc1nn(-c2ncc(Cl)cc2Cl)nc1NC(=O)c1cccnc1 [Compound I-3-17]
log P (acid) [4]: 1.74

SMILES: Cc1cc(N)nn1Cn1cncn1 [II-1-43]
log P (acid) [1]: −0.23

SMILES: Cn1nc(N)cc1C(F)F [II-1-40]
log P (acid) [1]: 0.22

SMILES: O=C(Nc1nn(-c2ccc(Cl)cc2Cl)nc1C(F)(F)F)c1cccnc1 [Compound I-3-8]
log P (acid) [4]: 2.97

SMILES: Cc1cc(N)nn1Cn1nccc1C(F)(F)F [II-1-41]
log P (acid) [1]: 1.26

SMILES: Cn1nc(NC(=O)c2cccnc2)c(C#N)c1[S+](C)[O-] (stereo not shown) [Compound I-1-141]
log P (acid) (LC-MS in the acidic range): 0.06

SMILES: C#CCn1nc(N)cc1C1CC1 [II-1-4]
log P (acid) [1]: 0.63

SMILES: Cc1ccn(Cn2nc(N)cc2C)n1 [II-1-38]
log P (acid) [1]: 0.55

SMILES: Cc1cn(Cc2ncccn2)nc1N1C(=O)c2ccccc2C1=O [2-[4-Methyl-1-(pyrimidin-2-ylmethyl)-1H-pyrazol-3-yl]-1H-isoindole-1,3(2H)-dione]
chromatographic logP [2]: 1.58

SMILES: O=C(Cn1nnc(NC(=O)c2cccnc2)n1)NCc1cccc2ccccc12 [Compound I-4-7]
log P (acid) [3]: 1.71

SMILES: COC(=O)c1cc(C)n(Cc2ncccn2)n1 [Methyl 5-methyl-1-(pyrimidin-2-ylmethyl)-1H-pyrazole-3-carboxylate]
chromatographic logP [2]: 0.98

SMILES: Cc1cc(N)nn1Cn1nc(C)n(C2CC2)c1=O [II-1-49]
log P (acid) [1]: 0.43

SMILES: Cc1cc(N)nn1C(F)F [II-1-27]
log P (acid) [1]: 0.47

SMILES: Cc1cc(N)nn1CN1CCCNC1=O [II-1-57]
log P (acid) [1]: <−0.23

SMILES: O=C(Nc1ncn(-c2ccccc2)n1)c1cccnc1 [Compound I-2-5]
log P (acid) [5]: 0.98

SMILES: O=C1c2ccccc2C(=O)N1c1cc(Br)n(Cc2ncccn2)n1 [2-[5-Bromo-1-(pyrimidin-2-ylmethyl)-1H-pyrazol-3-yl]-1H-isoindole-1,3(2H)-dione]
chromatographic logP [2]: 2.02

SMILES: Cc1cc(N)nn1Cn1ccc(C(F)(F)F)n1 [II-1-42]
log P (acid) [1]: 1.51

SMILES: Cc1cc(N)nn1Cc1ccncc1 [II-1-18]
log P (acid) [1]: 0.45

SMILES: N#Cc1ccccc1-n1ccc(NC(=O)c2cccnc2)n1 [Compound I-1-117]
log P (acid) (LC-MS in the acidic range): 1.42

SMILES: Cc1cn(Cc2ncccn2)nc1N [4-Methyl-1-(pyrimidin-2-ylmethyl)-1H-pyrazole-3-amine]
chromatographic logP [2]: -0.22

SMILES: C#CCn1nc(N)cc1C [II-1-20]
log P (acid) [1]: −0.15

SMILES: O=C(Nc1ncn(-c2c(Cl)cc(S(=O)(=O)C(F)(F)F)cc2Cl)n1)c1cccnc1 [Compound I-2-3]
log P (acid) [5]: 2.02

SMILES: O=C(Nc1nc(Cl)n(-c2ccccc2)n1)c1cccnc1 [Compound I-2-27]
log P (acid) [5]: 1.58

SMILES: Cc1cc(N)nn1Cn1nc(C)n(C)c1=O [II-1-46]
log P (acid) [1]: <−0.23

SMILES: Cc1cc(NC(=O)c2ccnnc2)nn1Cn1nc(C2CC2)n(C2CC2)c1=O [Compound I-1-150]
log P (acid) (LC-MS in the acidic range): 1.33

SMILES: O=C(Nc1nnn(Cc2ccccc2)n1)c1cccnc1 [Compound I-4-10]
log P (acid) [3]: 1.38

SMILES: Cc1cc(C)nc(Cn2nc(N)cc2C)n1 [II-1-9]
log P (acid) [1]: 0.42

SMILES: Cc1nn(-c2cccc(C(F)(F)F)c2)nc1NC(=O)c1cccnc1 [Compound I-3-18]
log P (acid) [4]: 2.58

SMILES: Cc1cc(N)nn1Cc1ncccc1Cl [II-1-24]
log P (acid) [1]: 0.6

SMILES: CSCn1nc(N)cc1C [II-1-60]
log P (acid) [1]: 0.14

SMILES: Cc1cc(N)nn1Cn1c(C)nn(C)c1=O [II-1-54]
log P (acid) [1]: <−0.23

SMILES: Cc1ccnn1Cn1nc(N)cc1C [II-1-39]
log P (acid) [1]: 0.52

SMILES: Cc1cc(N)nn1-c1ncccc1Cl [II-1-31]
log P (acid) [1]: 0.79

SMILES: Cc1cc(N)nn1Cc1ncnn1C [II-1-63]
log P (acid) [1]: <−0.23

SMILES: Cc1cc(N)nn1CSc1ncccn1 [II-1-51]
log P (acid) [1]: 0.49

SMILES: C#CCn1nc(N)cc1CC [II-1-17]
log P (acid) [1]: 0.46

SMILES: Cc1cc(N)nn1Cc1ncccc1C#N [II-1-25]
log P (acid) [1]: 0.21

SMILES: Nc1ccn(Cc2ncc(C(F)(F)F)cc2Cl)n1 [II-1-8, 1-{[3-Chloro-5-(trifluoromethyl)pyridin-2-yl]methyl}-1H-pyrazole-3-amine]
chromatographic logP (pH 2.7, amines of the formula (II-1), acidic range pH 2.7 (0.1% formic acid/acetonitrile) or pH 2.3 (0.1% phosphoric acid/acetonitrile), read-out: log P (acid)): 1.36
chromatographic logP [2]: 1.36

Next, values leading:

log P (acid) (LC-MS in the acidic range): 2.47
SMILES: COc1ccc(C(=O)Nc2cc(C)n(Cc3ccc(F)cc3)n2)cn1 [Compound I-1-110]

log P (acid) (LC-MS in the acidic range): 0.91
SMILES: Cc1cc(NC(=O)c2ccnnc2)nn1Cn1cccn1 [Compound I-1-240]

log P (acid) [5]: 0.70
SMILES: COc1ccnc(-n2cnc(NC(=O)c3cccnc3)n2)n1 [Compound I-2-11]

log P (acid) (LC-MS in the acidic range): 1.33
SMILES: Cc1cc(NC(=O)c2ccnnc2)nn1Cc1ncccc1Cl [Compound I-1-254]

log P (acid) (LC-MS in the acidic range): 1.53
SMILES: CCOC(=O)Cn1nc(NC(=O)c2cncc(F)c2)cc1C [Compound I-1-59]

log P (acid) (LC-MS in the acidic range): 1.73
SMILES: Cc1cc(NC(=O)c2ccnnc2)nn1Cn1ccc(C(F)(F)F)n1 [Compound I-1-255]

log P (acid) (LC-MS in the acidic range): 3.26
SMILES: Cc1cc(NC(=O)c2cnc(Cl)c(Cl)c2)nn1Cc1cccc(F)c1 [Compound I-1-96]

log P (acid) (LC-MS in the acidic range): 2.33
SMILES: Cc1nn(-c2ccccc2)nc1Cn1nc(NC(=O)c2cccnc2)cc1C [Compound I-1-303]

log P (acid) (LC-MS in the acidic range): 1.14
SMILES: Cc1cc(C)nc(Cn2nc(NC(=O)c3ccnnc3)cc2C)n1 [Compound I-1-251]

log P (acid) (LC-MS in the acidic range): 1.73
SMILES: Cc1ccc(C(=O)Nc2cc(C)n(Cc3ccccc3F)n2)cn1 [Compound I-1-102]

chromatographic logP [6]: 1.5
chromatographic logP [2]: 1.5
SMILES: COC(=O)c1cc(NC(=O)c2cncc(F)c2)nn1C [Compound I-1-134, Methyl 3-{[(5-fluoropyridin-3-yl)carbonyl]amino}-1-methyl-1H-pyrazole-5-carboxylate]

log P (acid) (LC-MS in the acidic range): 1.5
SMILES: COc1cc(OC)nc(Cn2nc(NC(=O)c3ccnnc3)cc2C)n1 [Compound I-1-252]

log P (acid) [4]: 1.67
SMILES: O=C(Nc1cnn(-c2c(F)cccc2F)n1)c1cccnc1 [Compound I-3-24]

log P (acid) [5]: −0.05
SMILES: Cc1nc(NC(=O)c2cccnc2)nn1Cc1ncccn1 [Compound I-2-2]

chromatographic logP [2]: 1.75
SMILES: Cc1cc(NC(=O)OC(C)(C)C)nn1Cc1ncccn1 [tert-Butyl[5-methyl-1-(pyrimidin-2-ylmethyl)-1H-pyrazol-3-yl]carbamate]

log P (acid) (LC-MS in the acidic range): 0.87
SMILES: Cc1cc(NC(=O)c2cncc(F)c2)nn1CC(=O)O [Compound I-1-114]

log P (acid) [4]: 2.26
SMILES: Cc1nn(-c2cc(Cl)ccc2Cl)nc1NC(=O)c1cccnc1 [Compound I-3-22]

chromatographic logP [6]: 1.65
chromatographic logP [2]: 1.65
SMILES: Cc1cc(NC(=O)c2cccnc2)nn1C(=O)C1CC1 [Compound I-1-121, N-[1-(Cyclopropylcarbonyl)-5-methyl-1H-pyrazol-3-yl]nicotinamide]

log P (acid) (LC-MS in the acidic range): 2.69
SMILES: Cc1cc(NC(=O)c2cncc(Br)c2)nn1Cc1ccccc1F [Compound I-1-101]

log P (acid) [4]: 1.71
SMILES: Cc1nn(-c2ccccc2Cl)nc1NC(=O)c1cccnc1 [Compound I-3-23]

log P (acid) (LC-MS in the acidic range): 1.53
SMILES: Cc1cc(C)nc(-n2nc(NC(=O)c3ccnnc3)cc2C)n1 [Compound I-1-248]
